Measurements taken from patent US9969715B2, “Compounds useful for treating cancer” (ABIVAX, priority 2012, dated 2018).

Assays:
[1] = tested on: MDA-MB231-luc-D3H2LN cells; test: Toxicity assay under normal cell culture conditions (MTS), MDA cells; format: cell-based, human; details: MDA-MB231-luc-D3H2LN cells, MEM+10% FBS, 72 h incubation, MTS
Protocol: (§1) In order to detect possible toxic effects, all compounds are tested in parallel in a viability assay. The viability assay is performed in parallel on serum-starved cells (as in the invasion assay) vs. cells under normal culture conditions (10% FBS).
(§2) Toxicity Assays (Under Normal Cell Culture Conditions):
(§3) Compounds were prepared as for the invasion assay, and then added to either MDA-MB231-luc-D3H2LN cells (2000/well) under normal culture conditions (MEM+10% FBS), or human PBMC (75000/well, in RPMI+10% FBS+IL-2) in standard 96-well tissue culture plates. After 72 h incubation, a standard MTS assay was performed according to the manufacturer's instructions (Promega Ref. G3581). Compounds were tested at various concentrations (concentration-response curves) in order to determine the concentrations at which 50% toxicity is obtained.

human PBMC = test: Toxicity assay under normal cell culture conditions (MTS), PBMC; format: cell-based; details: human PBMC, RPMI+10% FBS+IL-2, 72 h incubation, MTS
Protocol: as §2, §3

[2] = tested on: MDA-MB231-luc-D3H2LN cells; test: Invasion of MDA-MB231-D3H2LN cells into collagen (example 15 = procedure 2, 48 h drug pre-incubation); format: cell-based; details: concentration giving 50% of the anti-invasive effect of 10 μM Y-27632; 48 h pre-incubation, 24 h with 5% FBS; read-out: MDA: Inhib. of invasion: 0.5 × eff. of 10 μM Y-27632 at (μM) av
Protocol: Effect of Drug Compounds on Invasion of MDA-MB231-D3H2LN Cells into Collagen
Preparation of cells at the bottom of a collagen gel: Cells are suspended in a liquid collagen solution (4° C.), distributed into BSA-coated wells, and then collected at the bottom of the wells by centrifugation. The collagen is then solidified by incubation at 37° C. The BSA coating improves the adhesion of the collagen gel.
Pre-treatment with the compounds to be tested: Concentrated drug solutions are then added on top of the collagen, and cells are pre-incubated for 48 h with the drugs at low serum conditions (0.025% FBS).
Stimulation of invasion: Medium with 5% FBS is then added in order to stimulate invasion of the cells into the collagen gel.
(§4) Viability assay, fixation and staining: Following another 24 h incubation, an MTS assay is performed directly on the cells in the collagen. Then, cells are fixed and nuclei are stained.
Analysis: Finally, plates are analyzed using an automated microscope. Fluorescent beads that have been included into the BSA coating serve to detect the bottom of the wells. Pictures of the stained nuclei are taken at the same level (0 μm) as well as 25 μm and 50 μm above.
Negative control: No drug (just DMSO at equivalent concentration). Positive control: 10 μM Y-27632. To avoid edge effects, cells are added only to the 60 central wells B2-G11; lines A and H receive only collagen without cells (blank for the MTS assay) columns 1 and 12 remain free. Each drug is tested at least in triplicate. The positive and negative controls should be tested in several triplicates at different positions on each plate. Typical plate map (−=negative control, +=positive control, 1-12=12 different test conditions, i. e. different drug compounds or concentrations):
Preparation of 4× concentrated drug solutions in MEM+0.1% FBS+2% Lutrol E-400+0.8% DMSO: Mix each 620 μl MEM+0.1% FBS+2% Lutrol E-400 with each 4 μl DMSO+each 1 μl of the 50 mM compound stock solutions (yielding […] and 0.8% DMSO). If the desired final compound concentration is <5 μM, then further dilute in MEM+0.1% FBS+0.8% DMSO. Negative control: MEM+0.1% FBS+2% Lutrol E-400+0.8% DMSO without any drug. Preparation of the positive control: Mix 4.5 ml MEM+0.1% FBS+2% Lutrol E-400+[…] with 36 μl 5 mM Y-27632 (freshly thawed aliquot) (yielding 40 μM).
add each 33 μl/well of the 4× concentrated drug solutions in MEM+0.1% FBS+2% Lutrol E-400+0.8% DMSO to the corresponding wells (yields 1× concentrated drugs in MEM+0.025% FBS+0.5% Lutrol E-400+0.2% DMSO final)
incubate 48 h at 37° C./5% CO2
incubate 24 h at 37° C./5% CO2
for each well, calculate the mean invasion distance of the counted cells: (25 μm×number of cells at 25 μm+50 μm×number cells at 50 μm)/sum of cells at 0, 25 and 50 μm
invalidate any replicate with a CV≥50% (compound to be re-tested, or assay to be repeated if CV≥50% for the untreated negative control or the compound Y-27632-treated positive control). Y27632 is a selective inhibitor of the Rho-associated protein kinase p160ROCK of the following formula
validate the assay only if the mean invasion distance of the cells treated with 10 μM Y-27632 (positive control) is decreased by ≥40% as compared to the untreated negative control
(§5) Final analysis: Determine the concentration at which a given compound has 50% of the anti-invasive effect of the positive control (10 μM Y-27632). Determine the toxicity (=loss of viability) of the compound under these conditions.
Here, invasion (into collagen) is the concentration of the compound necessary to reach 50% of the inhibition effect compared to 10 μM Y-27632.
Standard operating procedure 2 is exactly the same as the procedure as described in example 15.

[3] = tested on: MDA-MB231-luc-D3H2LN cells; test: Viability (MTS) assay on the cells in collagen under invasion assay conditions; format: cell-based, human; details: loss of viability at the concentration giving 0.5 × effect of 10 μM Y-27632, invasion assay conditions
Protocol: as §4, §1
Viability Assay: MTS Assay:
add each 33 μl/well of the MTS reagent, incubate 3-4 h at 37° C./5% CO2
read absorbance at 490 nm (proportional to the viability)
calculate the background-corrected signals by subtracting the means of the background signals in absence of cells from the corresponding signals in presence of cells
normalize the background-corrected signals with respect to the mean signal of the negative controls (no drug) (viabilities are thus expressed in “% of control”)
as §5

Compound | IC50 [2] | MDA tox: 50% tox. at (μM) av [1] | PBMC tox.: 50% tox. at (μM) av (human PBMC) | (+ MDA tox. under these cond.) % tox [3]
CN1CCN(CCCNC(=O)c2cccc(Nc3cccc(C(=O)N(C)c4ccncc4)c3)c2)CC1 [Compound 20, N-methyl-3-((3-((3-(4-methylpiperazin-1-yl)propyl)carbamoyl)phenyl)amino)-N-(pyridin-4-yl)benzamide] | 0.85 µM | >100 µM | >100 µM | <10%
CN(C(=O)c1cccc(Nc2cccc(C(=O)NCCCN3CCOCC3)c2)c1)c1ccncc1 [Compound 22, N-methyl-3-((3-((3-morpholinopropyl)carbamoyl)phenyl)amino)-N-(pyridin-4-yl)benzamide] | 2.25 µM | >100 µM | >100 µM | <10%
CCN(CC)CCCNC(=O)c1cncc(Nc2cccc(C(=O)Nc3ccncc3)c2)c1 [Compound 32, N-(3-(diethylamino)propyl)-5-((3-(pyridin-4-ylcarbamoyl)phenyl)amino) nicotinamide] | 13.3 µM | >>100 μM | >>100 μM | <10%
CN1CCN(CCCNC(=O)c2ccnc(Nc3cccc(C(=O)N(C)c4ccncc4)c3)c2)CC1 [Compound 39, 2-((3-(methyl(pyridin-4-yl)carbamoyl)phenyl)amino)-N-(3-(4-methylpiperazin-1-yl)propyl)isonicotinamide] | 1.45 µM | 19 µM | 74 µM | <10%
O=C(Nc1ccncn1)c1cccc(Nc2cccc(S(=O)(=O)NCCCN3CCCCC3)c2)c1 [Compound 27, 3-((3-(N-(3-(piperidin-1-yl)propyl)sulfamoyl)phenyl)amino)-N-(pyrimidin-4-yl)benzamide] | 2.8 µM | 66 µM | 61 µM | <10%
CCN(CC)CCCNC(=O)c1ccnc(Nc2cccc(C(=O)N(C)c3ccncc3)c2)c1 [Compound 38, N-(3-(diethylamino)propyl)-2-((3-(methyl(pyridin-4-yl)carbamoyl)phenyl)amino)isonicotinamide] | 3.75 µM | >>100 μM | >>100 μM | <10%
O=C(Nc1ccncc1)c1ccc(Nc2cccc(S(=O)(=O)NCCCN3CCOCC3)c2)cc1 [Compound 15, 4-((3-(N-(3-morpholinopropyl)sulfamoyl)phenyl)amino)-N-(pyridin-4-yl)benzamide] | 5 µM | >>44 μM | 36 µM | <10%
CCN(CC)CCCNS(=O)(=O)c1cccc(Nc2cccc(C(=O)Nc3ccncn3)c2)c1 [Compound 26, 3-((3-(N-(3-(diethylamino)propyl)sulfamoyl)phenyl)amino)-N-(pyrimidin-4-yl)benzamide] | 3.6 µM | 73 µM | 85 µM | <10%
CCN(CC)CCCNC(=O)c1cccc(Nc2cc(C(=O)Nc3ccncc3)ccn2)c1 [Compound 47, 2-((3-((3-(diethylamino)propyl)carbamoyl)phenyl)amino)-N-(pyridin-4-yl)isonicotinamide] | 2.2 µM | >100 µM | >100 µM | <10%

The next compounds have a lower IC50 [2] than those just listed; values first:

IC50 [2] | Compound | MDA tox: 50% tox. at (μM) av [1] | PBMC tox.: 50% tox. at (μM) av (human PBMC) | (+ MDA tox. under these cond.) % tox [3]
0.38 µM | CN1CCN(CCCNC(=O)c2ccnc(Nc3cc(C(=O)Nc4ccncc4)ccn3)c2)CC1 [Compound 45, N-(3-(4-methylpiperazin-1-yl)propyl)-2-((4-(pyridin-4-ylcarbamoyl)pyridin-2-yl)amino)isonicotinamide] | >100 µM | >100 µM | <10%
0.11 µM | O=C(NCCCN1CCCCC1)c1cccc(Nc2cccc(C(=O)Nc3ccncc3)c2)c1 [Compound 7, N-(3-(piperidin-1-yl)propyl)-3-((3-(pyridin-4-ylcarbamoyl)phenyl)amino)benzamide] | 25 µM | 38 µM | <10%
< 0.5 µM | CCN(CC)CCCNC(=O)c1cccc(Nc2cccc(C(=O)Nc3ccncn3)c2)c1 [Compound 25, N-(3-(diethylamino)propyl)-3-((3-(pyrimidin-4-ylcarbamoyl)phenyl)amino)benzamide] | 46 µM | 88 µM | <10%
0.2 µM | CN1CCN(CCCNC(=O)c2ccnc(Nc3cccc(C(=O)Nc4ccncn4)c3)c2)CC1 [Compound 42, N-(3-(4-methylpiperazin-1-yl)propyl)-2-((3-(pyrimidin-4-ylcarbamoyl)phenyl)amino)isonicotinamide] | ≥100 µM | >100 µM | <10%
0.16 µM | CN1CCN(CCCNC(=O)c2cccc(Nc3cccc(C(=O)Nc4ccncc4)c3)c2)CC1 [Compound 6, N-(3-(4-methylpiperazin-1-yl)propyl)-3-((3-(pyridin-4-ylcarbamoyl)phenyl)amino)benzamide] | 58 µM | 100 µM | <10%
0.26 µM | O=C(NCCCN1CCCC1)c1cccc(Nc2cccc(C(=O)Nc3ccncn3)c2)c1 [Compound 28, N-(pyrimidin-4-yl)-3-((3-((3-(pyrrolidin-1-yl)propyl)carbamoyl)phenyl)amino)benzamide] | 35 µM | 49 µM | <10%
0.15 µM | O=C(NCCCN1CCCCC1)c1cccc(Nc2cccc(C(=O)Nc3ccncn3)c2)c1 [Compound 29, N-(3-(piperidin-1-yl)propyl)-3-((3-(pyrimidin-4-ylcarbamoyl)phenyl)amino)benzamide] | 33 µM | 44 µM | <10%
